Tested on: MV-4-11 cells
Assay: Gene expression microarray analysis (Affymetrix PrimeView) and GSEA
Assay type: cell-based, human
Set-up: RFU PODN (11730768_x_at) / Fold change /veh PODN (11730768_x_at) / RFU LINC00158 (11744669_a_at) / Fold change /veh LINC00158 (11744669_a_at) / RFU DUSP10 (11751237_a_at) / Fold change /veh DUSP10 (11751237_a_at) / RFU ID3 (11757404_x_at) / Fold change /veh ID3 (11757404_x_at) / RFU PLEKHG5 (11737974_s_at) / Fold change /veh PLEKHG5 (11737974_s_at) / RFU LRRC4B (11730491_at) / Fold change /veh LRRC4B (11730491_at) / RFU GIMAP4 (11747438_a_at) / Fold change /veh GIMAP4 (11747438_a_at) / RFU KRT8 (11758183_x_at) / Fold change /veh KRT8 (11758183_x_at) / RFU CNN1 (11734310_a_at) / Fold change /veh CNN1 (11734310_a_at) / RFU VPS37D (11726825_at) / Fold change /veh VPS37D (11726825_at) / RFU C10orf10 (11716522_x_at) / Fold change /veh C10orf10 (11716522_x_at) / RFU KIR2DL2 /// KIR2DL4 /// KIR2DL5A /// KIR2DL5B /// KIR2DS1 /// KIR2DS2 /// KIR2DS3 /// KIR2DS4 /// KIR3DL3 /// KIR3DL3 /// KIR3DS1 (11738374_at) / Fold change /veh KIR2DL2 /// KIR2DL4 /// KIR2DL5A /// KIR2DL5B /// KIR2DS1 /// KIR2DS2 /// KIR2DS3 /// KIR2DS4 /// KIR3DL3 /// KIR3DL3 /// KIR3DS1 (11738374_at) / RFU C1QL1 (11718748_at) / Fold change /veh C1QL1 (11718748_at) / RFU TMPRSS4 (11747572_a_at) / Fold change /veh TMPRSS4 (11747572_a_at) / RFU HAMP (11756126_x_at) / Fold change /veh HAMP (11756126_x_at) / RFU RNFT2 (11725882_a_at) / Fold change /veh RNFT2 (11725882_a_at) / RFU NR4A2 (11747474_a_at) / Fold change /veh NR4A2 (11747474_a_at) / RFU ABCC12 (11746883_a_at) / Fold change /veh ABCC12 (11746883_a_at) / RFU TMEM136 (11760407_x_at) / Fold change /veh TMEM136 (11760407_x_at) / RFU CLDN22 /// WWC2 (11732394_at) / Fold change /veh CLDN22 /// WWC2 (11732394_at) / RFU HLA-DPB1 (11760878_x_at) / Fold change /veh HLA-DPB1 (11760878_x_at) / RFU SPINT1 (11716480_a_at) / Fold change /veh SPINT1 (11716480_a_at) / RFU GAP43 (11754022_s_at) / Fold change /veh GAP43 (11754022_s_at) / RFU A4GNT (11735810_at) / Fold change /veh A4GNT (11735810_at) / RFU PRB3 (11715151_x_at) / Fold change /veh PRB3 (11715151_x_at) / RFU TUBB4B (11761932_at) / Fold change /veh TUBB4B (11761932_at) / RFU CAPN14 (11732068_a_at) / Fold change /veh CAPN14 (11732068_a_at) / RFU TMCC2 (11721928_a_at) / Fold change /veh TMCC2 (11721928_a_at) / RFU IRGQ (11745062_a_at) / Fold change /veh IRGQ (11745062_a_at) / RFU FAM174B (11720279_a_at) / Fold change /veh FAM174B (11720279_a_at) / RFU TMPRSS4 (11748680_a_at) / Fold change /veh TMPRSS4 (11748680_a_at) / RFU FAM212B (11763350_a_at) / Fold change /veh FAM212B (11763350_a_at) / RFU PLEKHG5 (11743358_a_at) / Fold change /veh PLEKHG5 (11743358_a_at) / RFU ZSCAN30 (11745921_a_at) / Fold change /veh ZSCAN30 (11745921_a_at) / RFU CMKLR1 (11741424_a_at) / Fold change /veh CMKLR1 (11741424_a_at) / RFU LOC101060620 /// MAPK8IP1 (11723275_at) / Fold change /veh LOC101060620 /// MAPK8IP1 (11723275_at) / RFU SPTSSB (11747773_x_at) / Fold change /veh SPTSSB (11747773_x_at) / RFU PRSS12 (11739890_at) / Fold change /veh PRSS12 (11739890_at) / RFU BIN1 (11741810_x_at) / Fold change /veh BIN1 (11741810_x_at) / RFU WNT11 (11732464_a_at) / Fold change /veh WNT11 (11732464_a_at) / RFU C10orf10 (11716521_a_at) / Fold change /veh C10orf10 (11716521_a_at) / RFU C5orf56 (11738089_at) / Fold change /veh C5orf56 (11738089_at) / RFU CYB561 (11721691_x_at) / Fold change /veh CYB561 (11721691_x_at) / RFU ANKRD19P (11752326_a_at) / Fold change /veh ANKRD19P (11752326_a_at) / RFU OR2T12 /// OR2T33 /// OR2T8 (11738714_s_at) / Fold change /veh OR2T12 /// OR2T33 /// OR2T8 (11738714_s_at) / RFU VCAN (11748164_a_at) / Fold change /veh VCAN (11748164_a_at) / RFU JSRP1 (11732532_at) / Fold change /veh JSRP1 (11732532_at) / RFU KRTAP10-11 (11738290_x_at) / Fold change /veh KRTAP10-11 (11738290_x_at) / RFU MYO3A (11730013_a_at) / Fold change /veh MYO3A (11730013_a_at) / RFU EBF3 (11725865_a_at) / Fold change /veh EBF3 (11725865_a_at) / RFU CAMK2N1 (11719241_x_at) / Fold change /veh CAMK2N1 (11719241_x_at) / RFU C5orf56 (11738088_a_at) / Fold change /veh C5orf56 (11738088_a_at) / RFU OLFML3 (11715873_a_at) / Fold change /veh OLFML3 (11715873_a_at) / RFU LOC100653217 /// NTM (11731650_a_at) / Fold change /veh LOC100653217 /// NTM (11731650_a_at) / RFU MAPK11 (11762145_a_at) / Fold change /veh MAPK11 (11762145_a_at) / RFU FIZ1 (11724087_x_at) / Fold change /veh FIZ1 (11724087_x_at) / RFU OASL (11726364_x_at) / Fold change /veh OASL (11726364_x_at) / RFU SOX15 (11748057_x_at) / Fold change /veh SOX15 (11748057_x_at) / RFU CD79A (11719716_a_at) / Fold change /veh CD79A (11719716_a_at) / RFU HIST1H1D (11736915_at) / Fold change /veh HIST1H1D (11736915_at) / RFU CASKIN2 (11723855_a_at) / Fold change /veh CASKIN2 (11723855_a_at) / RFU LOC730098 (11760151_x_at) / Fold change /veh LOC730098 (11760151_x_at) / RFU OR4N2 (11742367_at) / Fold change /veh OR4N2 (11742367_at) / RFU PRRT2 (11749266_a_at) / Fold change /veh PRRT2 (11749266_a_at) / RFU SNX32 (11753110_a_at) / Fold change /veh SNX32 (11753110_a_at) / RFU CDHR5 (11726645_a_at) / Fold change /veh CDHR5 (11726645_a_at) / RFU RCAN1 (11760418_a_at) / Fold change /veh RCAN1 (11760418_a_at) / RFU FAM167A (11723789_a_at) / Fold change /veh FAM167A (11723789_a_at) / RFU FAM26E (11764081_at) / Fold change /veh FAM26E (11764081_at) / RFU ISYNA1 (11749810_s_at) / Fold change /veh ISYNA1 (11749810_s_at) / RFU ACY1 (11761880_at) / Fold change /veh ACY1 (11761880_at) / RFU 11764098_at / Fold change /veh 11764098_at / RFU SAMD14 (11745864_x_at) / Fold change /veh SAMD14 (11745864_x_at) / RFU NPB (11741838_a_at) / Fold change /veh NPB (11741838_a_at) / RFU TMPRSS6 (11731388_a_at) / Fold change /veh TMPRSS6 (11731388_a_at) / RFU KRTAP10-2 (11738614_at) / Fold change /veh KRTAP10-2 (11738614_at) / RFU ARHGAP8 /// PRR5-ARHGAP8 (11727945_x_at) / Fold change /veh ARHGAP8 /// PRR5-ARHGAP8 (11727945_x_at) / RFU KRTAP5-7 /// NADSYN1 (11734609_at) / Fold change /veh KRTAP5-7 /// NADSYN1 (11734609_at) / RFU RASL12 (11751679_a_at) / Fold change /veh RASL12 (11751679_a_at) / RFU CDKN2B (11736163_a_at) / Fold change /veh CDKN2B (11736163_a_at) / RFU PRF1 (11729649_at) / Fold change /veh PRF1 (11729649_at) / RFU, ZNF638 /// ZNF638-IT1 / Fold change vs veh, ZNF638 /// ZNF638-IT1 / RFU, PANK3 / Fold change vs veh, PANK3 / RFU, SH3YL1 / Fold change vs veh, SH3YL1 / RFU, ZEB2 / Fold change vs veh, ZEB2 / RFU, NRIP1 / Fold change vs veh, NRIP1 / RFU, PTTG1IP / Fold change vs veh, PTTG1IP / RFU, CAPN2 / Fold change vs veh, CAPN2 / RFU, MED14 / Fold change vs veh, MED14 / RFU, SNORA58 / Fold change vs veh, SNORA58 / RFU, C1orf63 / Fold change vs veh, C1orf63 / RFU, LRRFIP1 / Fold change vs veh, LRRFIP1 / RFU, NDUFAF7 / Fold change vs veh, NDUFAF7 / RFU, SLC12A2 / Fold change vs veh, SLC12A2 / RFU, IBTK / Fold change vs veh, IBTK / RFU, ESF1 / Fold change vs veh, ESF1 / Fold change vs veh, TMEM50B / RFU, TAOK1 / Fold change vs veh, TAOK1 / RFU, ACBD3 / Fold change vs veh, ACBD3 / RFU, TMA16 / Fold change vs veh, TMA16 / RFU, RWDD3 / Fold change vs veh, RWDD3 / RFU, BCAT1 / Fold change vs veh, BCAT1 / RFU, EDEM3 / Fold change vs veh, EDEM3 / RFU, TMEM33 / Fold change vs veh, TMEM33 / RFU, WDR75 / Fold change vs veh, WDR75 / RFU, AHCTF1 / Fold change vs veh, AHCTF1 / RFU, TFRC / Fold change vs veh, TFRC / RFU, ZDHHC17 / Fold change vs veh, ZDHHC17 / RFU, NOM1 / Fold change vs veh, NOM1 / RFU, ARL8B / Fold change vs veh, ARL8B / RFU, ZBTB11 / Fold change vs veh, ZBTB11 / RFU, TAMM41 / Fold change vs veh, TAMM41 / RFU, KIAA1704 /// LOC100996395 / Fold change vs veh, KIAA1704 /// LOC100996395 / RFU, ING1 / Fold change vs veh, ING1 / RFU, TRMT61B / Fold change vs veh, TRMT61B / RFU, FUBP3 / Fold change vs veh, FUBP3 / RFU, TP53 / Fold change vs veh, TP53 / RFU, TNKS2 / Fold change vs veh, TNKS2 / RFU, ZFP14 / Fold change vs veh, ZFP14 / RFU, ACTR2 / Fold change vs veh, ACTR2 / RFU, PPP3R1 / Fold change vs veh, PPP3R1 / RFU, PIK3R1 / Fold change vs veh, PIK3R1 / RFU, HNRNPA1 / Fold change vs veh, HNRNPA1 / RFU, RNF170 / Fold change vs veh, RNF170 / RFU, ZNF28 / Fold change vs veh, ZNF28 / RFU, RNGTT / Fold change vs veh, RNGTT / RFU, OGT / Fold change vs veh, OGT / RFU, BRD1 / Fold change vs veh, BRD1 / RFU, MARS / Fold change vs veh, MARS / RFU, ZNF655 / Fold change vs veh, ZNF655 / RFU, FAHD1 / Fold change vs veh, FAHD1 / RFU, BDP1 / Fold change vs veh, BDP1 / RFU, LRRCC1 / Fold change vs veh, LRRCC1 / RFU, ARID1A / Fold change vs veh, ARID1A / RFU, ZNF146 / Fold change vs veh, ZNF146 / RFU, ZNF330 / Fold change vs veh, ZNF330 / RFU, GPN3 / Fold change vs veh, GPN3 / RFU, C9orf123 / Fold change vs veh, C9orf123 / RFU, N4BP2L2 / Fold change vs veh, N4BP2L2 / RFU, ARFIP1 / Fold change vs veh, ARFIP1 / RFU, FAM179B / Fold change vs veh, FAM179B / RFU, BCL10 / Fold change vs veh, BCL10 / RFU, UHRF1BP1L / Fold change vs veh, UHRF1BP1L / RFU, BET1 / Fold change vs veh, BET1 / RFU, CNOT2 / Fold change vs veh, CNOT2 / RFU, ZNF268 / Fold change vs veh, ZNF268 / Fold change vs veh, ZNF507 / RFU, DGCR2 / Fold change vs veh, DGCR2 / RFU, WDSUB1 / Fold change vs veh, WDSUB1 / Fold change vs veh, HSP90B1 /// MIR3652 / RFU, ADSS / Fold change vs veh, ADSS / RFU, GK / Fold change vs veh, GK / RFU, ZNF148 / Fold change vs veh, ZNF148 / RFU, TAF9 / Fold change vs veh, TAF9 / RFU, SLC1A5 / Fold change vs veh, SLC1A5 / RFU, SLMO2 / Fold change vs veh, SLMO2 / RFU, ABCC4 / Fold change vs veh, ABCC4 / RFU, LOC101060439 /// RAP1B / Fold change vs veh, LOC101060439 /// RAP1B / RFU, RFX7 / Fold change vs veh, RFX7 / RFU, GTPBP10 / Fold change vs veh, GTPBP10 / RFU, CNEP1R1 / Fold change vs veh, CNEP1R1 / RFU, BIVM-ERCC5 /// ERCC5 / Fold change vs veh, BIVM-ERCC5 /// ERCC5 / RFU, ILF3 / Fold change vs veh, ILF3 / RFU 11762660_at / Fold change /veh 11762660_at / RFU VCAN (11757783_s_at) / Fold change /veh VCAN (11757783_s_at) / RFU DDX43 (11728927_at) / Fold change /veh DDX43 (11728927_at) / RFU KRT8 (11758188_x_at) / Fold change /veh KRT8 (11758188_x_at) / RFU NKD1 (11759106_at) / Fold change /veh NKD1 (11759106_at) / RFU SRD5A1 (11742802_a_at) / Fold change /veh SRD5A1 (11742802_a_at) / RFU TPSAB1 /// TPSB2 (11721975_s_at) / Fold change /veh TPSAB1 /// TPSB2 (11721975_s_at) / RFU GSTM3 (11746129_a_at) / Fold change /veh GSTM3 (11746129_a_at) / RFU IL23R (11737362_x_at) / Fold change /veh IL23R (11737362_x_at) / RFU TMEM51 (11727254_a_at) / Fold change /veh TMEM51 (11727254_a_at) / RFU PIWIL2 (11732686_x_at) / Fold change /veh PIWIL2 (11732686_x_at) / RFU ORM1 (11744905_x_at) / Fold change /veh ORM1 (11744905_x_at) / RFU CCDC152 (11743942_at) / Fold change /veh CCDC152 (11743942_at) / RFU ECM1 (11717891_a_at) / Fold change /veh ECM1 (11717891_a_at) / RFU IL23R (11748794_a_at) / Fold change /veh IL23R (11748794_a_at) / RFU TNFAIP8L3 (11732012_x_at) / Fold change /veh TNFAIP8L3 (11732012_x_at) / RFU MBOAT4 (11741988_at) / Fold change /veh MBOAT4 (11741988_at) / RFU 11764193_at / Fold change /veh 11764193_at / RFU TMEM53 (11763286_at) / Fold change /veh TMEM53 (11763286_at) / RFU MAGEB2 (11727129_at) / Fold change /veh MAGEB2 (11727129_at) / RFU TMEM200A (11744735_a_at) / Fold change /veh TMEM200A (11744735_a_at) / RFU CCDC152 (11751479_a_at) / Fold change /veh CCDC152 (11751479_a_at) / RFU FAM211A (11726209_a_at) / Fold change /veh FAM211A (11726209_a_at) / RFU RGS16 (11746705_a_at) / Fold change /veh RGS16 (11746705_a_at) / RFU VCAN (11755009_s_at) / Fold change /veh VCAN (11755009_s_at) / RFU RHOB (11743442_s_at) / Fold change /veh RHOB (11743442_s_at) / RFU RGS16 (11720943_a_at) / Fold change /veh RGS16 (11720943_a_at) / RFU RGS16 (11720944_at) / Fold change /veh RGS16 (11720944_at) / RFU, VPS4B / Fold change vs veh, VPS4B / RFU, CREB1 / Fold change vs veh, CREB1 / RFU, DNAJC13 / Fold change vs veh, DNAJC13 / RFU, GNAQ / Fold change vs veh, GNAQ / RFU, CDK5R1 / Fold change vs veh, CDK5R1 / RFU, ZRANB3 / Fold change vs veh, ZRANB3 / RFU, CUL4A / Fold change vs veh, CUL4A / RFU, CCNY / Fold change vs veh, CCNY / RFU, UFL1 / Fold change vs veh, UFL1 / RFU, COG3 / Fold change vs veh, COG3 / RFU, DIAPH2 / Fold change vs veh, DIAPH2 / RFU, SKA2 / Fold change vs veh, SKA2 / RFU, AFF3 / Fold change vs veh, AFF3 / RFU, LMF1 / Fold change vs veh, LMF1 / RFU, IPO11 / Fold change vs veh, IPO11 / RFU, DFFB / Fold change vs veh, DFFB / RFU, FOXP1 / Fold change vs veh, FOXP1 / RFU, CARD8 / Fold change vs veh, CARD8 / RFU, STRN3 / Fold change vs veh, STRN3 / RFU, ADK / Fold change vs veh, ADK / RFU, RASSF2 / Fold change vs veh, RASSF2 / RFU, WIPF1 / Fold change vs veh, WIPF1 / RFU, LARP1B / Fold change vs veh, LARP1B / RFU, RASA1 / Fold change vs veh, RASA1 / RFU, RB1 / Fold change vs veh, RB1 / RFU, PPFIA1 / Fold change vs veh, PPFIA1 / RFU, MAT2A / Fold change vs veh, MAT2A / RFU, CCT5 / Fold change vs veh, CCT5 / RFU, WDR92 / Fold change vs veh, WDR92 / RFU, CUX1 / Fold change vs veh, CUX1 / RFU, TTC7A / Fold change vs veh, TTC7A / RFU, TMEM135 / Fold change vs veh, TMEM135 / RFU, DEPTOR / Fold change vs veh, DEPTOR / RFU, CPM / Fold change vs veh, CPM / RFU, DNAJB6 / Fold change vs veh, DNAJB6 / RFU, CACNA2D3 / Fold change vs veh, CACNA2D3 / RFU, DTX4 / Fold change vs veh, DTX4 / RFU, TFCP2 / Fold change vs veh, TFCP2 / RFU, GMCL1 /// GMCL1P1 / Fold change vs veh, GMCL1 /// GMCL1P1 / RFU, AEBP2 / Fold change vs veh, AEBP2 / RFU, SNHG1 /// SNORD22 /// SNORD25 /// SNORD26 /// SNORD27 /// SNORD28 /// SNORD29 /// SNORD31 / Fold change vs veh, SNHG1 /// SNORD22 /// SNORD25 /// SNORD26 /// SNORD27 /// SNORD28 /// SNORD29 /// SNORD31 / Fold change (Aza/veh), C12orf56 (ProbeSet 11735607_a_at) / Fold change (ACY-1035/veh), C12orf56 (ProbeSet 11735607_a_at) / Fold change (Aza/veh), FGFR1OP (ProbeSet 11751329_s_at) / Fold change (ACY-1035/veh), FGFR1OP (ProbeSet 11751329_s_at) / Fold change (Aza/veh), VPS36 (ProbeSet 11739960_a_at) / Fold change (ACY-1035/veh), VPS36 (ProbeSet 11739960_a_at) / RFU SYPL1 (11715823_x_at) / Fold change /veh SYPL1 (11715823_x_at) / RFU IGFBP7 (11715501_s_at) / Fold change /veh IGFBP7 (11715501_s_at) / RFU REEP3 (11722064_at) / Fold change /veh REEP3 (11722064_at) / RFU IGLL1 (11728026_x_at) / Fold change /veh IGLL1 (11728026_x_at): dose or concentration left out as unconfirmed
Conditions: ProbeSet 11721521_at; LIST B

`Nc1ccc(-c2cccs2)cc1NC(=O)c1ccc2c(c1)cc(C1CC1)n2CCN1CCOCC1` [ACY-1035] was tested, and the “RFU, ZDHHC17” value was 49.20 RFU.

— PMC5218480 (PLoS ONE, 2017)
